Laboratory results published in US20240228556A9, “NOVEL CANINE ODORANT BINDING PROTEINS” (SPECIALITES PET FOOD, priority 2021, published 2024).
Residue numbers refer to the chain shown, from its start.

Columns and labels:
[1] = molecular target: T1, CfamOBP3-102Y (mutant of Seq ID No 35) (Canis lupus familiaris, UniProt H2B3G5, H102Y); assay: Isothermal titration calorimetry; format: binding; settings: ITC at 25° C., 25 μM protein, 250 μM odorant, pH 7.5; mutant compared with CfamOBP3
T1 construct: His tag (MRGSHHHHHH leader of pQE31, then TDP from the BamHI site) (N); made in house; host or cells: E. coli M15 (plasmid pQE31)
T1 sequence (H2B3G5 16-190 H102Y): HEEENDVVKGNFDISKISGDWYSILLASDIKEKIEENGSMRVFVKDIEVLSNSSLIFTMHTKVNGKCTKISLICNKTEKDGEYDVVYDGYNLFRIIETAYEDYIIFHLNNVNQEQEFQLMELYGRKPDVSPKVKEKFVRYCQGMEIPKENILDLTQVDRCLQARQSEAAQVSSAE
Procedure: Titration experiments were carried at 25° C. using isothermal titration microcalorimeter VP-ITC system (Malvern Instruments, Malvern, UK). 100 mM odorant solution in MeOH were diluted to 250 μM into 100 mM potassium phosphate buffer, pH 7.5 and loaded into the syringe. Protein solutions were prepared at 25 μM in the phosphate buffer and degassed directly prior to experiment and injected into the measure cell. Injections of 10 μL ligand solution into the protein containing cell were performed at time intervals of 210 s with a total of 25 injections. Analysis of the experimental data was performed using the Origin 5.0 program (Malvern Instruments, Malvern, UK) and fitted by a model of one binding site. Binding parameters such as stoichiometry (n) and the association constant (KA) were determined by this fitting.

[2] = molecular target: T2, CfamOBP3 (Canis lupus familiaris, UniProt H2B3G5); assay: Fluorescence competitive binding assay (NPN displacement); settings: 2 μM OBP, 10 μM NPN, 20° C., pH 7.5, odorant 0.5-20 μM
T2 construct: His tag (from pQE31 vector) (N); made in house; host or cells: E. coli M15 (plasmid pQE31)
T2 sequence (H2B3G5 16-190): T1 sequence (H2B3G5 16-190 H102Y) with Y87H
Procedure: (§1) Binding experiments were performed at 20° C. on a spectrofluorometer (Cary-Eclipse (Agilent, USA)) equipped with magnetic stirrers and a Peltier control temperature unit. The fluorescent probes: 1-N-phenylnaphthylamine (NPN) (Sigma, USA), 8-anilinonaphthalene-1-sulfonic acid (1,8-ANS) (Sigma, USA), and SYPRO™ orange (ThermoFischer, France) were excited at 337 nm, 372 nm and 490 nm respectively. Emission spectra were recorded between 350 and 500 nm for NPN; 400 and 600 nm for 1,8-ANS and 510 and 700 nm for SYPRO orange. Fluorescent probe binding experiments were performed in a 2 mL cuvette of 1 cm path length containing 2 μM OBPs in 50 mM potassium phosphate buffer at pH 7.5. The fluorescent probes were prepared in 100% MeOH at 0.1, 1, 10 and 100 mM. The concentration of the different fluorescent probes was increased into the 1 mL solution containing CfamOBPs until the adding allow to reach a fluorescence maximum of emission intensity. The binding curves were then traced using SigmaPlot 12.5 software.
(§2) Ligand competitive binding experiments were performed in cuvettes containing 2 μM OBPs, 10 μM fluorescent probe for CfamOBP1 and its variant (Seq ID No 14) and CfamOBP3, 4 μM fluorescent probe for CfamOBP2 and its variant (Seq ID No 15) and 1.25× fluorescent probe for CfamOBP4, in 50 mM potassium phosphate buffer at pH 7.5.
(§3) Odorants were prepared in 100% MeOH and aliquots were added to final concentrations of 0.5-20 μM. The experiments were performed in triplicate. The obtained data were then traced and analysed using SigmaPlot 12.5 software.

[3] = molecular target: T3, CfamOBP2-K83 (variant of Seq ID No 15) (Canis lupus familiaris, UniProt O18874, E83K); assay: as above; settings: 2 μM OBP, 4 μM NPN, 20° C., pH 7.5, odorant 0.5-20 μM
T3 construct: His tag (from pQE31 vector) (N); made in house; host or cells: E. coli M15 (plasmid pQE31)
T3 sequence (O18874 19-180 E83K): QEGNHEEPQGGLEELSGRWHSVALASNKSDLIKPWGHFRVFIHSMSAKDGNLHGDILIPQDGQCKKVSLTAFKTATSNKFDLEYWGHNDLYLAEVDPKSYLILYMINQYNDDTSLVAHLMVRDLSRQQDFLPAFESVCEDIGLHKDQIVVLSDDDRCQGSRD
Procedure: as §1, §2, §3

[4] = molecular target: T4, CfamOBP2 (Canis lupus familiaris, UniProt O18874); assay: as above; settings: 2 μM OBP, 4 μM NPN, 20° C., pH 7.5, odorant 0.5-20 μM
T4 construct: His tag (from pQE31 vector) (N); made in house; host or cells: E. coli M15 (plasmid pQE31)
T4 sequence (O18874 19-180): T3 sequence (O18874 19-180 E83K) with K65E
Procedure: as §1, §2, §3

[5] = molecular target: T5, CfamOBP1 (Canis lupus familiaris, UniProt O18873); assay: Fluorescence competitive binding assay (1,8-ANS displacement); settings: 2 μM OBP, 10 μM 1,8-ANS, 20° C., pH 7.5, odorant 0.5-20 μM
T5 construct: His tag (from pQE31 vector) (N); made in house; host or cells: E. coli M15 (plasmid pQE31)
Procedure: as §1, with “software. […]” for “software.”
(§4) Odorants were prepared in 100% MeOH and aliquots were added to final concentrations of 0.5-20 μM. […] The obtained data were then traced and analysed using SigmaPlot 12.5 software.

[6] = molecular target: T6, CfamOBP1-L52 (variant of Seq ID No 14) (Canis lupus familiaris, UniProt O18873, S52L); assay: as above; settings: 2 μM OBP, 10 μM 1,8-ANS, 20° C., pH 7.5, odorant 0.5-20 μM
T6 construct: His tag (from pQE31 vector) (N); made in house; host or cells: E. coli M15 (plasmid pQE31)
T6 sequence (O18873 19-174 S52L): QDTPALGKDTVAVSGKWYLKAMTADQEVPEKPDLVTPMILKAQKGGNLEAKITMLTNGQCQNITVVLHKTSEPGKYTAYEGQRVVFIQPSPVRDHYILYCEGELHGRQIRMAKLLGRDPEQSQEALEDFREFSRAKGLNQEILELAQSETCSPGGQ
Procedure: as §1, with “software. […]” for “software.”
as §4

T5 sequence (O18873 19-174): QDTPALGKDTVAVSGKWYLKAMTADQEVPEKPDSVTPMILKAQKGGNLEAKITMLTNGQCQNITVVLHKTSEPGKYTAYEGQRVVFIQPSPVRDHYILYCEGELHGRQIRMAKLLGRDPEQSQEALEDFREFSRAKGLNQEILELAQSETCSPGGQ

Structure (SMILES): COc1nccnc1CC(C)C [IBMP, 2-isobutyl-3-methoxypyrazine]
- change of Ka value (affinity) versus CfamOBP3 [1]: eight fold increase
- displacement of the fluorescent probe [2]: able to displace the probes

Structure (SMILES): CC(C)CCCC(C)CCO (stereo not drawn) [DMO, 3,7-dimethyl-1-octanol]
- displacement of the fluorescent probe [3]: able to displace the probes
- displacement of the fluorescent probe [4]: able to displace the probes

Structure (SMILES): CC(C)=CCCC(C)CC=O (stereo not drawn) [citronellal]
- displacement of the fluorescent probe [5]: able to displace the probes
- displacement of the fluorescent probe [6]: able to displace the probes
